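Values below derive from 48-hour exposures of cells grown in 96-well plates, with endpoints linearly interpolated between the two concentrations bracketing the appropriate inhibition level. The concentration for full growth arrest is given as TGI.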
What was measured:
Experiment in all cases: DTP human tumour cell line panel, 48 h
[1] = system: UO-31 renal
[2] = system: ACHN renal
[3] = system: K-562 leukemia
[4] = system: SNB-75 CNS
[5] = system: HOP-92 NSCLC
[6] = system: SK-MEL-28 melanoma
[7] = system: NCI-H23 lung
[8] = system: OVCAR-8 ovarian
[9] = system: RPMI-8226 leukemia
[10] = system: CAKI-1 renal
[11] = system: LOX IMVI melanoma
[12] = system: M14 melanoma
[13] = system: SF-268 CNS
[14] = system: MOLT-4 leukemia
[15] = system: SK-MEL-2 melanoma
[16] = system: OVCAR-4 ovarian
[17] = system: SF-295 CNS
[18] = system: OVCAR-3 ovarian
[19] = system: UACC-257 melanoma
[20] = system: U251 CNS

Compound	TGI [1]	TGI [2]	TGI [3]	TGI [4]	TGI [5]	TGI [6]	TGI [7]	TGI [8]	TGI [9]	TGI [10]	TGI [11]	TGI [12]	TGI [13]	TGI [14]	TGI [15]	TGI [16]	TGI [17]	TGI [18]	TGI [19]	TGI [20]
O=C1/C(=C/c2ccco2)N=C(c2ccccc2)N1c1cc2cc(Sc3ccccc3)ccc2[nH]1	> 25 µM	> 25 µM	> 25 µM	> 25 µM	> 25 µM	> 25 µM	> 25 µM	> 25 µM	2.4 µM	> 25 µM	> 25 µM	> 25 µM	> 25 µM	> 25 µM	> 25 µM	> 25 µM	–	–	–	–
N=C(N)SCc1cccc2c(=O)cc(-c3ccccc3)oc12	11.3 µM	15.5 µM	> 42.2 µM	19.4 µM	16.9 µM	6.37 µM	31.3 µM	29.8 µM	18.4 µM	11.3 µM	28.3 µM	27.5 µM	45.8 µM	8.79 µM	25.2 µM	31.2 µM	26.5 µM	23.1 µM	26 µM	27.3 µM
O=C(O)c1oc(C(=O)O)c(C(=O)O)c1C(=O)O	> 100 µM	> 100 µM	> 100 µM	–	> 100 µM	> 100 µM	> 100 µM	> 100 µM	> 100 µM	> 100 µM	> 100 µM	> 100 µM	> 100 µM	> 100 µM	> 100 µM	> 100 µM	> 100 µM	> 100 µM	> 100 µM	> 100 µM
COc1cccc(CC2Cc3ccccc3CC(=O)N2)c1 (configuration not stated)	> 100 µM	> 100 µM	> 100 µM	> 100 µM	> 100 µM	> 100 µM	> 100 µM	> 100 µM	> 100 µM	68.6 µM	70.9 µM	93.3 µM	> 100 µM	> 100 µM	> 100 µM	> 100 µM	> 100 µM	> 100 µM	> 100 µM	> 100 µM
O=C1/C(=C/c2ccc(Cl)cc2)N=C(c2ccccc2)N1c1ccc(S(=O)(=O)Nc2nccs2)cc1	> 100 µM	> 100 µM	> 100 µM	> 100 µM	90.7 µM	> 100 µM	> 100 µM	–	49.5 µM	> 100 µM	> 100 µM	> 100 µM	> 100 µM	83.2 µM	47.3 µM	> 100 µM	> 100 µM	> 100 µM	> 100 µM	> 100 µM
CCCCC(=O)Oc1ccc2c(C)cc(=O)oc2c1	> 100 µM	> 100 µM	> 100 µM	> 100 µM	> 100 µM	> 100 µM	> 100 µM	> 100 µM	> 100 µM	> 100 µM	> 100 µM	> 100 µM	> 100 µM	> 100 µM	> 100 µM	> 100 µM	> 100 µM	> 100 µM	> 100 µM	> 100 µM
CC(C)NCCC(O)c1cc2ccccc2o1 (configuration not stated)	> 100 µM	> 100 µM	> 100 µM	> 100 µM	> 100 µM	> 100 µM	> 100 µM	> 100 µM	> 100 µM	> 100 µM	> 100 µM	> 100 µM	> 100 µM	49.2 µM	> 100 µM	> 100 µM	> 100 µM	> 100 µM	> 100 µM	> 100 µM
CCOC(=O)C1=C(C)N(NC(N)=O)C2(O)CCCC(=O)C12C (configuration not stated)	–	> 100 µM	–	> 100 µM	> 100 µM	> 100 µM	> 100 µM	> 100 µM	> 100 µM	> 100 µM	> 100 µM	> 100 µM	–	–	> 100 µM	> 100 µM	> 100 µM	> 100 µM	> 100 µM	> 100 µM
COc1ccc(Cc2nccc3cc(OC)c(OC)cc23)cc1OC	> 100 µM	> 100 µM	> 100 µM	> 100 µM	> 100 µM	> 100 µM	> 100 µM	> 100 µM	> 100 µM	> 100 µM	> 100 µM	> 100 µM	> 100 µM	> 100 µM	> 100 µM	> 100 µM	> 100 µM	> 100 µM	> 100 µM	> 100 µM
CCCCS(=O)(=O)Nc1ccc(Nc2c3ccccc3nc3ccccc23)c(OC)c1	10.2 µM	–	16.5 µM	7.69 µM	9.08 µM	16.4 µM	11.3 µM	13.3 µM	> 21.4 µM	10.1 µM	3.85 µM	–	14.5 µM	3.97 µM	30.9 µM	18.8 µM	9.84 µM	16.3 µM	18.6 µM	5.85 µM
c1ccc(C[n+]2cccc(-c3cc4ccccc4[nH]3)c2)cc1	> 100 µM	> 100 µM	77.8 µM	> 100 µM	54 µM	38 µM	71 µM	> 100 µM	41.2 µM	> 100 µM	37.9 µM	55.2 µM	> 100 µM	91.1 µM	32.8 µM	> 100 µM	> 100 µM	> 100 µM	32.3 µM	> 100 µM
O=C(O)C12CCCC(CCC1)C2	> 100 µM	> 100 µM	> 100 µM	> 100 µM	> 100 µM	> 100 µM	> 100 µM	> 100 µM	> 100 µM	> 100 µM	> 100 µM	> 100 µM	> 100 µM	> 100 µM	> 100 µM	> 100 µM	> 100 µM	> 100 µM	> 100 µM	> 100 µM
NC(CCOCCP(=O)(O)CCOCCC(N)C(=O)O)C(=O)O (configuration not stated)	> 100 µM	> 100 µM	> 100 µM	> 100 µM	> 100 µM	> 100 µM	> 100 µM	> 100 µM	> 100 µM	> 100 µM	–	> 100 µM	> 100 µM	> 100 µM	> 100 µM	> 100 µM	> 100 µM	> 100 µM	> 100 µM	> 100 µM

Source: PubChem BioAssay (NCI)
